pIC50: −log10 of the molar value. Values joined by “and” are separate entries in the source; they are usually repeats but may differ in a detail not shown here. Equal entries are not always repeated.
What was measured:
VLA-4 (a4b1 integrin) [1] = target: T1, VLA-4 (a4b1 integrin) (Homo sapiens, UniProt P05556+P13612); test: VLA-4 / VCAM-1 Screening Assay (solid-phase, dual antibody ELISA); settings: Ramos cell-derived VLA-4 binding to immobilized recombinant human VCAM-1, 1 mM MnCl2, 2 hr at 37 °C; for pIC50: read-out: ELISA IC50
T1 construct: followed by 10 µl of Ramos cell-derived VLA-4; endogenous in cells; host or cells: Ramos cells (VLA-4 preparation derived from the cells)
T1 sequence (P13612 34-1032): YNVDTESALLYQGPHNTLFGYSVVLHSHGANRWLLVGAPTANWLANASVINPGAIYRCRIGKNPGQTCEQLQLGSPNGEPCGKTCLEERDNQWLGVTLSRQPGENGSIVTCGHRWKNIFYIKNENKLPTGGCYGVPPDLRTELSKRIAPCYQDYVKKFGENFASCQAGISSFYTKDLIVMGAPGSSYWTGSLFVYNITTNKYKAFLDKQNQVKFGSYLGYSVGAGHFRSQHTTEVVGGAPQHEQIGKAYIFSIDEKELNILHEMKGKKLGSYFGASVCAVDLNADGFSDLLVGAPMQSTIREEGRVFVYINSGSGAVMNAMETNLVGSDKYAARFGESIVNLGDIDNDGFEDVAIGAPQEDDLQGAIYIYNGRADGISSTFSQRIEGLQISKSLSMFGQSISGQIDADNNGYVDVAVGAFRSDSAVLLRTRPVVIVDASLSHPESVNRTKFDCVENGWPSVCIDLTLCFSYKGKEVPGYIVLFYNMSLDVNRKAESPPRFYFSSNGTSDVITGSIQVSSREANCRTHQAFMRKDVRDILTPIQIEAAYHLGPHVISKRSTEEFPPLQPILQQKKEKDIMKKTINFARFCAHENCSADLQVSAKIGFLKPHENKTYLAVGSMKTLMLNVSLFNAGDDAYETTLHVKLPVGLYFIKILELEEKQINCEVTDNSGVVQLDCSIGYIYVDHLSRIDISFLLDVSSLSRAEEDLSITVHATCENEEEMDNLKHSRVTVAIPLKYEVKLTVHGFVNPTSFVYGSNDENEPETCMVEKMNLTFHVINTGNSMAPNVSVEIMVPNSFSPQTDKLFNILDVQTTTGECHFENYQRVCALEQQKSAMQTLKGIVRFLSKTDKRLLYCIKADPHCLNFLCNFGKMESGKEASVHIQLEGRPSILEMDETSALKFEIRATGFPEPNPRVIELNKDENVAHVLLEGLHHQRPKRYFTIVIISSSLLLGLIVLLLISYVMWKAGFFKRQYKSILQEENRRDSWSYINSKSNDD
T1 sequence (P05556 21-798): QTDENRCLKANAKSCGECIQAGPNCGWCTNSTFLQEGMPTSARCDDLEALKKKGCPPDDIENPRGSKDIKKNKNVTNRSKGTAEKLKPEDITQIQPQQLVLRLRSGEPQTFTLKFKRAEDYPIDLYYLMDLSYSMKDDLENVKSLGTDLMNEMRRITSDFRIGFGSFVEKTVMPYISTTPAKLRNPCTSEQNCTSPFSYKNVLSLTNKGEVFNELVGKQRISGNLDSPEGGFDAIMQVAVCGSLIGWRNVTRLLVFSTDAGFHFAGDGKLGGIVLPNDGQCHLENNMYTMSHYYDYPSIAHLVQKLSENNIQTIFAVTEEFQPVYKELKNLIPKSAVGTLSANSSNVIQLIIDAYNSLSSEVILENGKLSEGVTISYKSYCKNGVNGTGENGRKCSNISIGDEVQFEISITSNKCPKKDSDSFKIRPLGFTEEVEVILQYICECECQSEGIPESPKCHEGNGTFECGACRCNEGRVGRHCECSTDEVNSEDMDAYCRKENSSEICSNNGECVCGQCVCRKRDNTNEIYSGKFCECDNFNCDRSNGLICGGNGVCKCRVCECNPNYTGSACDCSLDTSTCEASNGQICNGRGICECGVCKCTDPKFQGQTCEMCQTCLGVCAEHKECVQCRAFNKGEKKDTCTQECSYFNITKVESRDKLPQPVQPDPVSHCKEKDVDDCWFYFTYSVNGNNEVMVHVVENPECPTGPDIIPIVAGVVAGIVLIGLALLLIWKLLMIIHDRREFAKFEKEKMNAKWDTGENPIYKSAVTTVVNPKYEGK
Method: VLA-4 / VCAM-1 Screening Assay
VLA-4 antagonist activity, defined as ability to compete for binding to immobilized VCAM-1, was quantitated using a solid-phase, dual antibody ELISA. VLA-4 (a4b1 integrin) bound to VCAM-1 is detected by a complex of anti-integrin b1 antibody: HRP-conjugated anti-mouse IgG: chromogenic substrate (K-Blue). Initially, this entailed coating 96 well plates (Nunc Maxisorp) with recombinant human VCAM-1 (0.4 µg in 100 µl PBS), sealing each plate and then allowing the plates to stand at 4°C for Å18 hr. […] On the day of assay, all plates are washed twice with VCAM Assay Buffer (200 µl/well of 50 mM Tris-HCl, 100 mM NaCl, 1 mM MnCl2, 0.05% Tween 20; pH 7.4). Test compounds are dissolved in 100% DMSO and then diluted 1:20 in VCAM Assay Buffer supplemented with 1mg/mL BSA (i.e., final DMSO = 5%). […] 100 µl per well of each dilution is added to the VCAM-coated plates, followed by 10 µl of Ramos cell-derived VLA-4. These plates are sequentially mixed on a platform shaker for 1 min, incubated for 2 hr at 37 °C, and then washed four times with 200 µl/well VCAM Assay Buffer. 100 µl of mouse anti-human integrin b1 antibody is added to each well (0.6 µg/mL in VCAM Assay Buffer + 1mg/mL BSA) and allowed to incubate for 1 hr at 37°C. At the conclusion of this incubation period, all plates are washed four times with VCAM Assay Buffer (200 µl/well). A corresponding second antibody, HRP-conjugated goat anti-mouse IgG (100 µl per well @ 1:800 dilution in VCAM Assay Buffer + 1mg/mL BSA), is then added to each well, followed by a 1 hr incubation at room temperature and concluded by three washes (200µl/well) with VCAM Assay Buffer. Color development is initiated by addition of 100 µl K-Blue per well (15 min incubation, room temp) and terminated by addition of 100 µl Red Stop Buffer per well. […] Results are calculated as % inhibition of total binding (i.e., VLA-4 + VCAM-1 in the absence of test compound).

VLA-4 (a4b1 integrin) [2] = target: T1, VLA-4 (a4b1 integrin); test: Ramos (VLA-4) / VCAM-1 Cell-Based Screening Assay (cell adhesion)
Excerpt: Ramos (VLA-4) / VCAM-1 Cell-Based Screening Assay Protocol
Calcein-AM was purchased from Molecular Probes Inc.
VLA-4 (a4b1 integrin) antagonist activity, defined as ability to compete with cell-surface VLA-4 for binding to immobilized VCAM-1, was quantitated using a Ramos-VCAM-1 cell adhesion assay. Ramos cells bearing cell-surface VLA-4, were labeled with a fluorescent dye (Calcein-AM) and allowed to bind VCAM-1 in the presence or absence of test compounds.
Initially, this entailed coating 96 well plates (Nunc Maxisorp) with recombinant human VCAM-1 (100 ng in 100 µl PBS), sealing each plate and allowing the plates to stand at 4°C for Å18 hr. The VCAM-coated plates were subsequently washed twice with 0.05% Tween-20 in PBS, and then blocked for 1hr (room temperature) with 200 µl of Blocking Buffer (1% BSA/0.02% thimerosal) to reduce non-specific binding. Following the incubation with Blocking Buffer, plates were inverted, blotted and the remaining buffer aspirated. Each plate was then washed with 300 µl PBS, inverted and the remaining PBS aspirated.
Test compounds were dissolved in 100% DMSO and then diluted 1:25 in VCAM Cell Adhesion Assay Buffer (4 mM CaCl2, 4 mM MgCl2 in 50 mM TRIS-HCl, pH 7.5) (final DMSO = 4%). […] 100 µl/well of each dilution was added to the VCAM-coated plates, followed by 100 µl of Ramos cells (200,000 cells/well in 1% BSA/PBS). […] Plates were inverted to remove non-adherent cells, blotted and 300 µl/well PBS added. Plates were again inverted, blotted and the remaining buffer gently aspirated. 100 µl Lysis Buffer (0.1% SDS in 50 mM TRIS-HCl, pH 8.5) was added to each well and agitated for 2 min on a rotary shaking platform.

[3] = Calcein-AM labeled Ramos cells adhering to immobilized recombinant human VCAM-1, 45 min at room temperature, read-out: Ramos IC50

Compound | pIC50 (VLA-4 (a4b1 integrin) [1]) | pIC50 (VLA-4 (a4b1 integrin) [2]; [3]) | further results
CC(=O)N1[C@H](CC(C)C)C(=O)N(c2ccc(C[C@H](NC(=O)c3c(C)cccc3Cl)C(=O)O)cc2)[C@@H]1C(C)(C)C [Example 102] | 7.39 | – | –
COc1ccc(Br)c(C(=O)N[C@@H](Cc2ccc(NC(=O)c3c(Cl)cccc3Cl)cc2)C(=O)O)c1 [Example 24] | 9.60 | – | –
Cc1cccc(Cl)c1C(=O)N[C@@H](Cc1ccc(NC(=O)c2c(Cl)cccc2Cl)cc1)C(=O)O [Example 13] | 9.48 | 7.82 | –
O=C(Nc1ccc(C[C@H](NC(=O)c2cccc3ccccc23)C(=O)O)cc1)c1c(Cl)cccc1Cl [Example 15] | – | 5.59 | –
CC(C)c1cccc(C(C)C)c1C(=O)N[C@@H](Cc1ccc(NC(=O)c2c(Cl)cccc2Cl)cc1)C(=O)O [Example 18] | 7.96 | – | –
C[S+]([O-])c1ccccc1C(=O)N[C@@H](Cc1ccc(NC(=O)c2c(Cl)cccc2Cl)cc1)C(=O)O (single isomer, unassigned) [Example 30, 4-[[(2,6-dichlorophenyl)carbonyl]amino]-N-[[2-(methylsulfinyl)phenyl]carbonyl]-L-phenylalanine] | 8.70 and 8.80 | – | –
Cc1cccc(Cl)c1C(=O)Nc1ccc(C[C@H](NC(=O)c2c(Cl)cccc2Cl)C(=O)O)cc1 [Example 169, N-[(2,6-Dichlorophenyl)carbonyl]-4-[[(2-chloro-6-methylphenyl)carbonyl]amino]-L-phenylalanine] | – | 7.52 | –
CS(=O)(=O)c1ccc(C(=O)N[C@@H](Cc2ccc(NC(=O)c3c(Cl)cccc3Cl)cc2)C(=O)O)c(Cl)c1 [Example 94] | 9.60 | 8.02 | –
Cc1cccc(C(C)C)c1C(=O)N[C@@H](Cc1ccc(NC(=O)c2c(Cl)cccc2Cl)cc1)C(=O)O [Example 90] | 8.92 | 7.64 | –
CC(=O)N1C(Cc2ccccc2)C(=O)N(c2ccc(C[C@H](NC(=O)c3c(C)cccc3Cl)C(=O)O)cc2)C1c1ccccc1 (single isomer, unassigned) [Example 170] | – | 7.47 | –
Cc1cccc(Cl)c1C(=O)N[C@@H](Cc1ccc(NC(=O)c2c(C)ccnc2C)cc1)C(=O)O [Example 107] | – | – | IC50 (VLA-4 (a4b1 integrin) [1]; ELISA IC50 nM): 0.79 nM; pIC50 (VLA-4 (a4b1 integrin) [2]): 7.70
Nc1ccc(C(=O)N[C@@H](Cc2ccc(NC(=O)c3c(Cl)cccc3Cl)cc2)C(=O)O)c(Cl)c1 [Example 124, N-[(4-amino-2-chlorophenyl)carbonyl]-4-[[(2,6-dichlorophenyl)carbonyl]amino]-L-phenylalanine] | 9.20 | 6.01 | –
Cc1cc(C(F)(F)F)c(C(=O)N[C@@H](Cc2ccc(NC(=O)c3c(Cl)cccc3Cl)cc2)C(=O)O)c(C)n1 [Example 156] | – | 6.94 | –
4-[(2S,4R)-3-Acetyl-2-phenyl-4-(3-pyridinylmethyl)-5-oxo-1-imidazolinyl]-N-[(2-chloro-6-methylphenyl)carbonyl]-L-phenylalanine and 4-[(2R,4R)-3-acetyl-2-phenyl-4-(3-pyridinylmethyl)-5-oxo-1-imidazolinyl]-N-[(2-chloro-6-methylphenyl)carbonyl]-L-phenylalanine [Example 171] | – | 7.87 | –
Cc1cccc(Cl)c1C(=O)N[C@@H](Cc1ccc(NC(=O)c2c(F)cccc2F)cc1)C(=O)O [Example 114, N-[1-(2-Chloro-6-methylphenyl)carbonyl]-4-[[(2,6-difluorophenyl)carbonyl]amino]-L-phenylalanine] | 8.94 | – | –
COc1ccc(C(=O)N[C@@H](Cc2ccc(NC(=O)c3c(Cl)cccc3Cl)cc2)C(=O)O)c(Cl)c1 [Example 19] | – | 6.45 | –
Cc1cccc(C(=O)N[C@@H](Cc2ccc(NC(=O)c3c(Cl)cccc3Cl)cc2)C(=O)O)c1Cl [Example 21] | 8.85 | 5.90 | –
O=C(Nc1ccc(C[C@H](NC(=O)c2c(F)cccc2C(F)(F)F)C(=O)O)cc1)c1c(Cl)cccc1Cl [Example 16] | – | 7.07 | –
Cc1cc(C(F)(F)F)c(C(=O)Nc2ccc(C[C@H](NC(=O)c3c(C)cccc3Cl)C(=O)O)cc2)c(C)n1 [Example 150] | – | – | pIC50 (VLA-4 (a4b1 integrin) [2]): 7.33
O=C(N[C@@H](Cc1ccc(NC(=O)c2c(Cl)cccc2Cl)cc1)C(=O)O)c1cccc(Cl)c1Cl [Example 20] | 8.66 | 5.79 | –
O=C(N[C@@H](Cc1ccc(NC(=O)c2c(Cl)cccc2Cl)cc1)C(=O)O)c1ccc(O)cc1Cl [Example 95] | 9.34 | 7.48 | –
CS(=O)(=O)c1ccccc1C(=O)N[C@@H](Cc1ccc(NC(=O)c2c(Cl)cccc2Cl)cc1)C(=O)O [Example 28] | 8.48 | – | –
CNc1ccccc1C(=O)N[C@@H](Cc1ccc(NC(=O)c2c(Cl)cccc2Cl)cc1)C(=O)O [Example 27] | 8.72 | – | –
O=C(N[C@@H](Cc1ccc(NC(=O)c2c(Cl)cccc2Cl)cc1)C(=O)O)c1ccc(Br)cc1Cl [Example 22] | 8.80 | 5.88 | –
COC(=O)[C@H](Cc1ccc(N2C(=O)[C@@H](C(C)C)N(C)C2=O)cc1)NC(=O)c1c(C)cccc1Cl [Example 96, N-(2-Chloro-6-methylbenzoyl)-[(R)-2,5-dioxo-3-methyl-4-(1-methylethyl)-1-imidazolininyl]-L-phenylalanine methyl ester] | 9.33 | – | –
Cc1cccc(Cl)c1C(=O)N[C@@H](Cc1ccc(NC(=O)c2c(F)c(F)c(F)c(F)c2F)cc1)C(=O)O [Example 115, N-[1-(2-Chloro-6-methylphenyl)carbonyl]-4-[[(2,3,4,5,6-pentafluorophenyl)carbonyl]amino]-L-phenylalanine] | 8.35 | 6.17 | –
COc1ccccc1C(=O)N[C@@H](Cc1ccc(NC(=O)c2c(Cl)cccc2Cl)cc1)C(=O)O [Example 26] | 8.07 | – | –
Cc1cccc(Cl)c1C(=O)N[C@@H](Cc1ccc(N2C(=O)c3ccc(C#N)cc3C2=O)cc1)C(=O)O [Example 125] | – | – | IC50 (VLA-4 (a4b1 integrin) [1]; read-out: ELISA IC50 nM): 1.7 nM

From patent EP1005445B1, “N-ALKANOYLPHENYLALANINE DERIVATIVES” (F. HOFFMANN-LA ROCHE AG, priority 1997, dated 1999)
